Where a name gives a salt, the structure may show the parent alone. Active and inactive are the calls of the source. The rule behind the calls is not given here.
Legend:
[1] = test system: A549; assay: Induction of apoptosis in human A549 cells assessed as cell viability pretreated with caspase inhibitor Z-VAD-FMK for 24 hrs followed by incubation with compound at 100 nM and measured after 48 hrs by CCK-8 assay; type: functional, cell-based
[2] = test system: A549; assay: Induction of apoptosis in human A549 cells assessed as cell viability pretreated with necroptosis inhibitor necrostatin-I for 24 hrs followed by incubation with compound at 100 nM and measured after 48 hrs by CCK-8 assay; type: functional, cell-based
[3] = test system: A549; assay: Induction of apoptosis in human A549 cells assessed as cell viability pretreated with autophagy inhibitor 3-methyladenine for 24 hrs followed by incubation with compound at 100 nM and measured after 48 hrs by CCK-8 assay; type: functional, cell-based
[4] = test system: HeLa; assay: Antiproliferative activity against human HeLa cells assessed as cell viability incubated for 48 hrs by MTT assay; type: functional, cell-based
[5] = test system: A549; assay: Antiproliferative activity against human A549 cells assessed as cell viability incubated for 48 hrs by MTT assay; type: functional, cell-based; conditions: A549, 48 h
[6] = test system: A549; assay: Induction of apoptosis in human A549 cells assessed as cell viability pretreated with ferroptosis inhibitor ferrostatin-1 for 24 hrs followed by incubation with compound at 100 nM and measured after 48 hrs by CCK-8 assay; type: functional, cell-based
[7] = test system: A549; assay: Induction of apoptosis in human A549 cells assessed as early apoptotic cells at 50 nM incubated for 24 hrs by annexin V-FITC/PI staining based flow cytometry analysis; type: functional, cell-based
[8] = test system: HCT-8; assay: Antiproliferative activity against human HCT-8 cells assessed as cell viability incubated for 48 hrs by MTT assay; type: functional, cell-based; conditions: HCT-8, 48 h
[9] = test system: A2780; assay: Antiproliferative activity against human A2780 cells assessed as cell viability incubated for 48 hrs by MTT assay; type: functional, cell-based; conditions: A2780, 48 h
[10] = test system: A549; assay: Induction of apoptosis in human A549 cells assessed as cell viability pretreated with ferroptosis inhibitor desferoxamine for 24 hrs followed by incubation with compound at 100 nM and measured after 48 hrs by CCK-8 assay; type: functional, cell-based
[11] = test system: MCF7; assay: Antiproliferative activity against human MCF7 cells assessed as cell viability incubated for 48 hrs by MTT assay; type: functional, cell-based; conditions: MCF7, 48 h
[12] = test system: A549; assay: Induction of cell death in human A549 cells assessed as increased mitochondrial membrane density at 10 uM for 12 hrs by TEM analysis; type: functional, cell-based
[13] = test system: A549; assay: In vivo antitumor activity against human A549 cells xenografted in athymic nude BALB/c mouse assessed as tumor weight at 10 mg/kg measured after 30 days (reference value: 1 gram); type: functional; conditions: time 30 day
[14] = test system: A549; assay: In vivo antitumor activity against human A549 cells xenografted in athymic nude BALB/c mouse assessed as tumor volume at 10 mg/kg measured after 30 days (reference value: 1503.3 mm^3); type: functional; conditions: time 30 day
[15] = test system: A549; assay: Induction of cell death in human A549 cells assessed as vanished mitochondrial cristae at 10 uM for 12 hrs by TEM analysis; type: functional, cell-based
[16] = test system: A549; assay: Induction of ferroptosis in human A549 cells assessed as depletion of GSH levels at 10 uM upto 12 hrs; type: functional, cell-based
[17] = test system: A549; assay: In vivo antitumor activity against human A549 cells xenografted in athymic nude BALB/c mouse assessed as tumor growth inhibition at 10 mg/kg measured after 30 days relative to control; type: functional; conditions: A549, 720 h, time 30 day, read-out: TGI
[18] = test system: A549; assay: Induction of apoptosis in human A549 cells assessed as cell viability pretreated with ferroptosis inhibitor desferoxamine for 24 hrs followed by incubation with compound at 200 nM and measured after 48 hrs by CCK-8 assay; type: functional, cell-based
[19] = test system: A549; assay: Induction of apoptosis in human A549 cells assessed as cell viability pretreated with necroptosis inhibitor necrostatin-I for 24 hrs followed by incubation with compound at 200 nM and measured after 48 hrs by CCK-8 assay; type: functional, cell-based
[20] = test system: A549; assay: Induction of apoptosis in human A549 cells assessed as cell viability pretreated with caspase inhibitor Z-VAD-FMK for 24 hrs followed by incubation with compound at 200 nM and measured after 48 hrs by CCK-8 assay; type: functional, cell-based
[21] = test system: A549; assay: Induction of apoptosis in human A549 cells assessed as cell viability pretreated with autophagy inhibitor 3-methyladenine for 24 hrs followed by incubation with compound at 200 nM and measured after 48 hrs by CCK-8 assay; type: functional, cell-based
[22] = test system: A549; assay: Induction of apoptosis in human A549 cells assessed as cell viability pretreated with ferroptosis inhibitor ferrostatin-1 for 24 hrs followed by incubation with compound at 200 nM and measured after 48 hrs by CCK-8 assay; type: functional, cell-based
[23] = test system: A549; assay: Antiproliferative activity against human adriamycin-resistant A549/ADR cells assessed as cell viability incubated for 48 hrs by MTT assay; type: functional, cell-based; conditions: A549, 48 h
[24] = test system: HCT-8; assay: Antiproliferative activity against human vincristine-resistant HCT-8/VCR cells assessed as cell viability incubated for 48 hrs by MTT assay; type: functional, cell-based; conditions: HCT-8, 48 h
[25] = test system: A2780; assay: Antiproliferative activity against human paclitaxel-resistant A2780/TAX cells assessed as cell viability incubated for 48 hrs by MTT assay; type: functional, cell-based; conditions: A2780, 48 h
[26] = test system: A549; assay: Resistance index, ratio of IC50 for antiproliferative activity against human adriamycin-resistant A549/ADR cells to IC50 for antiproliferative activity against human A549 cells; type: functional
[27] = Resistance index, ratio of IC50 for antiproliferative activity against human paclitaxel-resistant A2780/TAX cells to IC50 for antiproliferative activity against human A2780 cells; type: functional
[28] = Resistance index, ratio of IC50 for antiproliferative activity against human vincristine-resistant HCT-8/VCR cells to IC50 for antiproliferative activity against HCT-8 cells; type: functional
[29] = test system: A549; assay: Induction of apoptosis in human A549 cells assessed as chromatin condensation incubated for 24 hrs by CCK-8 assay; type: functional, cell-based
[30] = test system: A549; assay: Induction of apoptosis in human A549 cells assessed as nucleic fragmentation incubated for 24 hrs by CCK-8 assay; type: functional, cell-based
[31] = target: Tubulin; assay: Inhibition of tubulin polymerization (unknown origin) assessed as fluorescence intensity emission at 410 nm for 60 mins; type: protein-complex assay, Homo sapiens
[32] = test system: A549; assay: Induction of cell death in human A549 cells assessed as increased mitochondrial membrane density at 200 nM for 12 hrs by TEM analysis; type: functional, cell-based
[33] = target: Tubulin; assay: Inhibition of [3H]colchicine binding to tubulin (unknown origin) by competitive binding assay; type: protein-complex assay, Homo sapiens
[34] = test system: A549; assay: Induction of apoptosis in human A549 cells assessed as apoptotic body formation incubated for 24 hrs […]; type: functional, cell-based
[35] = test system: A549; assay: Induction of cell death in human A549 cells assessed as vanished mitochondrial cristae at 200 nM for 12 hrs by TEM analysis; type: functional, cell-based
[36] = test system: A549; assay: Induction of apoptosis in human A549 cells assessed as cell rounding incubated for 24 hrs […]; type: functional, cell-based

COc1ccc(C(=O)c2cc(OC)c(OC)c(OC)c2)c(NC(=O)CO)c1
Activity [1]: Active
Activity [2]: Active
Activity [3]: Active
IC50 [4]: 70 nM
IC50 [5]: 70 nM
Activity [6]: Active
Activity [7]: Active
IC50 [8]: 120 nM
IC50 [9]: 100 nM
Activity [10]: Active
IC50 [11]: 230 nM

CCOc1ccccc1-n1c(C(C)N2CCN(C(=O)COc3ccc(Cl)cc3)CC2)nc2ccccc2c1=O (stereo not drawn) [ERASTIN]
Activity [12]: Active
Activity [13]: 0.89 g
Activity [14]: 1339.4 mm3
Activity [15]: Active
Activity [16]: Active
inhibition in vivo at 10 mg/kg [17]: 10.9%

COc1ccc(C(=O)c2ccc(OC)c3c2OC(C)(C)C=C3)c(NC(=O)CO)c1
Activity [1]: Active
Activity [2]: Active
Activity [3]: Active
IC50 [4]: 100 nM
IC50 [5]: 80 nM
Activity [6]: Active
Activity [7]: Active
IC50 [8]: 230 nM
IC50 [9]: 100 nM
Activity [10]: Active
IC50 [11]: 320 nM

C=C(c1cc(OC)c(OC)c(OC)c1)c1ccc(OC)c(O)c1NC(=O)COC
Activity [18]: Active
Activity [19]: Active
IC50 [4]: 330 nM
IC50 [5]: 190 nM
Activity [20]: Active
IC50 [8]: 280 nM
Activity [21]: Active
Activity [22]: Active
IC50 [9]: 450 nM
IC50 [11]: 560 nM

CC(=O)O[C@H]1C(=O)[C@@]2(C)[C@H]([C@H](OC(=O)c3ccccc3)[C@]3(O)C[C@H](OC(=O)[C@H](O)[C@@H](NC(=O)c4ccccc4)c4ccccc4)C(C)=C1C3(C)C)[C@]1(OC(C)=O)CO[C@@H]1C[C@@H]2O [PACLITAXEL]
IC50 [23]: 70 nM
IC50 [5]: 30 nM
IC50 [24]: 130 nM
IC50 [8]: 20 nM

CC[C@]1(O)C[C@H]2CN(CCc3c([nH]c4ccccc34)[C@@](C(=O)OC)(c3cc4c(cc3OC)N(C=O)[C@H]3[C@@](O)(C(=O)OC)[C@H](OC(C)=O)[C@]5(CC)C=CCN6CC[C@]43[C@@H]65)C2)C1 [VINCRISTINE]
IC50 [25]: 170 nM
IC50 [23]: 560 nM
Ratio IC50 [26]: 9.33
IC50 [5]: 60 nM
IC50 [24]: 7860 nM
Ratio IC50 [27]: 5.67
IC50 [8]: 350 nM
IC50 [9]: 30 nM
Ratio IC50 [28]: 22.46

C=C(c1ccc(OC)cc1NC(=O)CNC)c1ccc(OC)c2c1OC(C)(C)C=C2
IC50 [4]: 310 nM
IC50 [5]: 150 nM
IC50 [8]: 320 nM
IC50 [9]: 210 nM
IC50 [11]: 400 nM

C=C(c1cc(OC)c(OC)c(OC)c1)c1ccc(OC)c(O)c1NC(C)=O
Activity [1]: Active
Activity [2]: Active
Activity [3]: Active
IC50 [4]: 90 nM
IC50 [5]: 80 nM
Activity [6]: Active
IC50 [8]: 340 nM
IC50 [9]: 170 nM
Activity [10]: Active
IC50 [11]: 270 nM

C=C(c1ccc2c(c1)C=CC(C)(C)O2)c1ccc(OC)cc1NC(=O)CNCC
IC50 [4]: 1580 nM
IC50 [5]: 1180 nM
IC50 [8]: 2220 nM
IC50 [9]: 1870 nM
IC50 [11]: 3370 nM

COc1cccc2c1C(=O)c1c(O)c3c(c(O)c1C2=O)C[C@@](O)(C(=O)CO)C[C@@H]3O[C@H]1C[C@H](N)[C@H](O)[C@H](C)O1 [DOXORUBICIN HYDROCHLORIDE]
IC50 [25]: 2690 nM
IC50 [23]: 12500 nM
IC50 [24]: 21600 nM
IC50 [8]: 3980 nM
IC50 [9]: 2030 nM

CCNCC(=O)Nc1cc(OC)ccc1C(=O)c1ccc(OC)c2c1C=CC(C)(C)O2
IC50 [4]: 4270 nM
IC50 [5]: 2310 nM
IC50 [8]: 7890 nM
IC50 [9]: 4090 nM
IC50 [11]: 7230 nM

COc1ccc(C(=O)c2cc(OC)c(OC)c(OC)c2)c(NC(=O)CN(C)C)c1
IC50 [4]: 470 nM
IC50 [5]: 590 nM
IC50 [8]: 790 nM
IC50 [9]: 580 nM
IC50 [11]: 790 nM

COc1ccc(C(=O)c2cc(OC)c(OC)c(OC)c2)cc1O [PHENSTATIN]
Activity [29]: Active
Activity [30]: Active
IC50 [4]: 220 nM
IC50 [31]: 2940 nM
Activity [32]: Active
IC50 [33]: 3030 nM
IC50 [8]: 360 nM
Activity [34]: Active
IC50 [9]: 110 nM
IC50 [11]: 960 nM
Activity [35]: Active
Activity [36]: Active

COc1ccc(C(=O)c2ccc(OC)c3c2OC(C)(C)C=C3)c(NC(=O)CN)c1
IC50 [4]: 410 nM
IC50 [5]: 270 nM
IC50 [8]: 370 nM
IC50 [9]: 380 nM
IC50 [11]: 410 nM

CCNCC(=O)Nc1cc(OC)ccc1C(=O)c1ccc(OC)c2c1OC(C)(C)C=C2
IC50 [4]: 2690 nM
IC50 [5]: 1050 nM
IC50 [8]: 3690 nM
IC50 [9]: 1980 nM
IC50 [11]: 5200 nM

COc1ccc(C(=O)c2ccc(OC)c3c2C=CC(C)(C)O3)c(NC(=O)CBr)c1
IC50 [4]: 3680 nM
IC50 [5]: 2460 nM
IC50 [8]: 4360 nM
IC50 [9]: 2150 nM
IC50 [11]: 3290 nM
